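The concentration for 50% growth inhibition is given as GI50. TGI: concentration producing complete growth inhibition.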
Columns and labels:
Assay in all cases: growth of human tumour cells (NCI), 384-well format
[1] = tested on: U251 glioblastoma
[2] = tested on: UO-31 renal
[3] = tested on: COLO 205 colon
[4] = tested on: RXF 393 renal
[5] = tested on: MCF7 breast
[6] = tested on: HS 578T breast
[7] = tested on: NCI-H226 lung
[8] = tested on: KM12 colon
[9] = tested on: MALME-3M melanoma
[10] = tested on: MDA-MB-231 breast
[11] = tested on: CAKI-1 renal
[12] = tested on: HCC-2998 colon
[13] = tested on: CCRF-CEM leukemia
[14] = tested on: A498 renal
[15] = tested on: RPMI-8226 leukemia
[16] = tested on: SK-MEL-28 melanoma
[17] = tested on: T-47D breast
[18] = tested on: MOLT-4 leukemia
[19] = tested on: NCI-H322M lung
[20] = tested on: HL-60(TB) leukemia
[21] = tested on: SF-268 CNS
[22] = tested on: EKVX NSCLC
[23] = tested on: M14 melanoma
[24] = tested on: NCI-H460 NSCLC
[25] = tested on: 786-0 renal
[26] = tested on: ACHN renal
[27] = tested on: OVCAR-5 ovarian
[28] = tested on: A549 NSCLC
[29] = tested on: SN12C renal
[30] = tested on: LOX IMVI melanoma
[31] = tested on: HT29 colon
[32] = tested on: UACC-62 melanoma
[33] = tested on: BT-549 breast
[34] = tested on: MDA-MB-435 melanoma
[35] = tested on: SW-620 colon
[36] = tested on: NCI-H522 lung
[37] = tested on: OVCAR-8 ovarian
[38] = tested on: SNB-75 CNS
[39] = tested on: NCI-H23 lung
[40] = tested on: SNB-19 CNS
[41] = tested on: TK-10 renal
[42] = tested on: OVCAR-4 ovarian
[43] = tested on: HOP-92 NSCLC
[44] = tested on: HOP-62 NSCLC
[45] = tested on: K-562 leukemia
[46] = tested on: HCT-116 colon
[47] = tested on: MDA-MB-468 breast
[48] = tested on: SF-539 CNS
[49] = tested on: UACC-257 melanoma
[50] = tested on: HCT-15 colon
[51] = tested on: SK-OV-3 ovarian
[52] = tested on: IGROV1 ovarian
[53] = tested on: OVCAR-3 ovarian
[54] = tested on: SK-MEL-5 melanoma
[55] = tested on: NCI/ADR-RES ovarian
[56] = tested on: DU-145 prostate
[57] = tested on: PC-3 prostate
[58] = tested on: SR leukemia
[59] = tested on: SF-295 CNS

## CCn1c(CO)nn(-c2cc(O[C@@H](C)C(F)(F)F)c(C(=O)Nc3c(F)cccc3Cl)cc2F)c1=O
[1]
  GI50: < 10 nM
  TGI: 30700 nM
[2]
  GI50: < 10 nM
  TGI: 28800 nM
[3]
  GI50: < 10 nM
  TGI: > 100000 nM
[4]
  GI50: < 10 nM
  TGI: 12300 nM
[5]
  GI50: < 10 nM
  TGI: 91300 nM
[6]
  GI50: 15200 nM
  TGI: > 100000 nM
[7]
  GI50: 17600 nM
  TGI: > 100000 nM
[8]
  GI50: < 10 nM
  TGI: > 100000 nM
[9]
  GI50: < 10 nM
  TGI: > 100000 nM
[10]
  GI50: < 10 nM
  TGI: > 100000 nM
[11]
  GI50: < 10 nM
  TGI: > 100000 nM
[12]
  GI50: 18600 nM
  TGI: > 100000 nM
[13]
  GI50: < 10 nM
  TGI: 43000 nM
[14]
  GI50: 13500 nM
  TGI: > 100000 nM
[15]
  GI50: < 10 nM
  TGI: < 10 nM
[16]
  GI50: < 10 nM
  TGI: 19900 nM
[17]
  GI50: 7650 nM
  TGI: 58200 nM
[18]
  GI50: < 10 nM
  TGI: < 10 nM
[19]
  GI50: 9920 nM
  TGI: > 100000 nM
[20]
  GI50: < 10 nM
  TGI: < 10 nM
[21]
  GI50: < 10 nM
  TGI: < 10 nM
[22]
  GI50: 63400 nM
  TGI: > 100000 nM
[23]
  GI50: < 10 nM
  TGI: 62700 nM
[24]
  GI50: < 10 nM
  TGI: 14700 nM
[25]
  GI50: < 10 nM
  TGI: 32500 nM
[26]
  GI50: < 10 nM
  TGI: > 100000 nM
[27]
  GI50: < 10 nM
  TGI: > 100000 nM
[28]
  GI50: < 10 nM
  TGI: > 100000 nM
[29]
  GI50: < 10 nM
  TGI: > 100000 nM
[30]
  GI50: < 10 nM
  TGI: < 10 nM
[31]
  GI50: < 10 nM
  TGI: 62600 nM
[32]
  GI50: < 10 nM
  TGI: 70200 nM
[33]
  GI50: < 10 nM
  TGI: > 100000 nM
[34]
  GI50: < 10 nM
  TGI: > 100000 nM
[35]
  GI50: < 10 nM
  TGI: 20400 nM
[36]
  GI50: < 10 nM
  TGI: 84500 nM
[37]
  GI50: < 10 nM
  TGI: > 100000 nM
[38]
  GI50: 13400 nM
  TGI: 79200 nM
[39]
  GI50: < 10 nM
  TGI: > 100000 nM
[40]
  GI50: 17500 nM
  TGI: > 100000 nM
[41]
  GI50: < 10 nM
  TGI: > 100000 nM
[42]
  GI50: 54900 nM
  TGI: > 100000 nM
[43]
  GI50: < 10 nM
  TGI: > 100000 nM
[44]
  GI50: 6850 nM
  TGI: > 100000 nM
[45]
  GI50: < 10 nM
  TGI: > 100000 nM
[46]
  GI50: < 10 nM
  TGI: > 100000 nM
[47]
  GI50: < 10 nM
  TGI: 22600 nM
[48]
  GI50: 16100 nM
  TGI: > 100000 nM
[49]
  GI50: 11200 nM
  TGI: > 100000 nM
[50]
  GI50: < 10 nM
  TGI: > 100000 nM
[51]
  GI50: 22700 nM
  TGI: > 100000 nM
[52]
  GI50: 2220 nM
  TGI: > 100000 nM
[53]
  GI50: 20800 nM
  TGI: > 100000 nM
[54]
  GI50: < 10 nM
  TGI: 18800 nM
[55]
  GI50: < 10 nM
  TGI: 88000 nM
[56]
  GI50: < 10 nM
  TGI: > 100000 nM

## CC(C)S(=O)(=O)c1ccccc1Nc1nc(Nc2cccc(NC(=O)CN)c2)ncc1Cl
[1]
  GI50: 193 nM
  TGI: 1600 nM
[2]
  GI50: 218 nM
  TGI: 10700 nM
[3]
  GI50: 19.4 nM
  TGI: 128 nM
[4]
  GI50: 21.4 nM
  TGI: 167 nM
[5]
  GI50: 30.1 nM
  TGI: 685 nM
[6]
  GI50: 45.5 nM
  TGI: 205 nM
[7]
  GI50: 49.5 nM
  TGI: 354 nM
[8]
  GI50: 19.1 nM
  TGI: 474 nM
[9]
  GI50: 399 nM
  TGI: 1560 nM
[10]
  GI50: 93.2 nM
  TGI: 445 nM
[11]
  GI50: 124 nM
  TGI: 866 nM
[12]
  GI50: 187 nM
  TGI: 659 nM
[13]
  GI50: < 10 nM
  TGI: < 10 nM
[14]
  GI50: 186 nM
  TGI: 11400 nM
[15]
  GI50: 20.3 nM
  TGI: 60.7 nM
[16]
  GI50: 217 nM
  TGI: 1290 nM
[17]
  GI50: 480 nM
  TGI: 3320 nM
[19]
  GI50: 389 nM
  TGI: 1730 nM
[20]
  GI50: < 10 nM
  TGI: < 10 nM
[21]
  GI50: 30.7 nM
  TGI: 223 nM
[22]
  GI50: 150 nM
  TGI: 1710 nM
[23]
  GI50: 17.7 nM
  TGI: 493 nM
[24]
  GI50: < 10 nM
  TGI: 335 nM
[25]
  GI50: 182 nM
  TGI: 2080 nM
[26]
  GI50: 200 nM
  TGI: 14700 nM
[28]
  GI50: 106 nM
  TGI: 7360 nM
[29]
  GI50: 149 nM
  TGI: 518 nM
[30]
  GI50: 25.8 nM
  TGI: 180 nM
[31]
  GI50: 184 nM
  TGI: 1160 nM
[57]
  GI50: 237 nM
  TGI: 1490 nM
[32]
  GI50: 34.8 nM
  TGI: 213 nM
[33]
  GI50: 49.5 nM
  TGI: 193 nM
[34]
  GI50: 168 nM
  TGI: 1300 nM
[35]
  GI50: 29.2 nM
  TGI: 436 nM
[58]
  GI50: < 10 nM
  TGI: < 10 nM
[36]
  GI50: 77.1 nM
  TGI: 622 nM
[37]
  GI50: 87.5 nM
  TGI: 308 nM
[38]
  GI50: 23.8 nM
  TGI: 189 nM
[59]
  GI50: 89.1 nM
  TGI: 11400 nM
[39]
  GI50: 107 nM
  TGI: 247 nM
[40]
  GI50: 141 nM
  TGI: 6120 nM
[41]
  GI50: 185 nM
  TGI: 2560 nM
[42]
  GI50: 377 nM
  TGI: 2070 nM
[43]
  GI50: 135 nM
  TGI: 463 nM
[44]
  GI50: 39.1 nM
  TGI: 680 nM
[45]
  GI50: 25 nM
  TGI: 242 nM
[46]
  GI50: < 10 nM
  TGI: 164 nM
[47]
  GI50: 17.4 nM
  TGI: 42 nM
[48]
  GI50: 47.2 nM
  TGI: 216 nM
[49]
  GI50: 324 nM
  TGI: 1440 nM
[50]
  GI50: 152 nM
  TGI: 1250 nM
[51]
  GI50: 290 nM
  TGI: 7900 nM
[52]
  GI50: 141 nM
  TGI: 383 nM
[53]
  GI50: 57.1 nM
  TGI: 290 nM
[54]
  GI50: 56.3 nM
  TGI: 229 nM
[55]
  GI50: 72.7 nM
  TGI: 1140 nM
[56]
  GI50: 79.1 nM
  TGI: 1710 nM
